Earlier results in US5326898A, “Substituted phenylethenyl compounds having retinoid-like biological activity” (Allergan, Inc., priority 1992, dated 1994).

System: ornithine decarboxylase (ODC)
Details: qualitative; background statement on retinoic acid

SMILES: CC1=C(/C=C/C(C)=C/C=C/C(C)=C/C(=O)O)C(C)(C)CCC1 [Retinoic acid]
- inhibition of induction of ODC activity by TPA: inhibits
